The nature of assay [1]: HepG2 cell cytotoxicity, dose response, cytotoxicity control, ATP luminescence, cherry-pick, set 6 (AID 1053125). Type of assay: functional, cell-based.
Assay [2] in a line: cells. To be noted: A549.
The nature of assay [3]: Luminescence Cell-Based Dose Retest to Confirm Inhibitors of Cancer Stem Cells. [Related pubchem assays (depositor defined):AID2717, AID2721]. Type of assay: functional. To be noted: Homo sapiens.
Assay [4] in a line: Fluorescence-based cell-based high throughput dose response assay for inhibitors of the interaction of nucleotide-binding oligomerization domain containing 2 (NOD2) and the receptor-interacting serine-threonine kinase 2 (RIPK2). Type of assay: functional. The settings on record: Homo sapiens.
The target in assay [5] is T1, Protein RecA (Mycobacterium tuberculosis, UniProt P9WHJ3).
T1 sequence (P9WHJ3 whole entry): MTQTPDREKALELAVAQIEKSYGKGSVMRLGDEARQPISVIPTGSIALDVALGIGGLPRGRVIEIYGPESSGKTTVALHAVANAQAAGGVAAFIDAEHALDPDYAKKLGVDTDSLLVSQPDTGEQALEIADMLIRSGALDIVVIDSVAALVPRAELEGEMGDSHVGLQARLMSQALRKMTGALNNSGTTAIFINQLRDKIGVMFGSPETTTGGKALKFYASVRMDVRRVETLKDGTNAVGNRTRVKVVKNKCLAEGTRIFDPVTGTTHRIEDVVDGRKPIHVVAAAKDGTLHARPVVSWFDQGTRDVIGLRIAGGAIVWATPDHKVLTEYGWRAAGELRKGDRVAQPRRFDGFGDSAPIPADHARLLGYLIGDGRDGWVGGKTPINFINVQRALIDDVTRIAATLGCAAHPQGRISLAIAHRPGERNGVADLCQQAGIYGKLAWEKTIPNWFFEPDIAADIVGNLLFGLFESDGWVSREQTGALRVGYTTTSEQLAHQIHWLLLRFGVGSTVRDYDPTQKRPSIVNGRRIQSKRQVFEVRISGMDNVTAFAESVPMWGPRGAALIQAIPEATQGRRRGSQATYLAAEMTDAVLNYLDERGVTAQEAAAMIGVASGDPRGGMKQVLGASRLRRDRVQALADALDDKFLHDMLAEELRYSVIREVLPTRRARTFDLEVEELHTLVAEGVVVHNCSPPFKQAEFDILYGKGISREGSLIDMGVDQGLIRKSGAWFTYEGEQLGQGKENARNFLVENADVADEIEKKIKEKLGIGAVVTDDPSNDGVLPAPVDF
The assay is described as follows: Fluorescence Cell-Free Homogeneous Dose Retest to Identify Inhibitors of RecA-Intein Splicing Activity. [Related pubchem assays (depositor defined):AID2097, AID2223, AID489010, AID492950]. Type of assay: functional.

For assay [6], the target named is Beta Lactamase (Pseudomonas aeruginosa, UniProt Q932Y6). Briefly: beta-lactamase reporter inhibitor potency, dose response, artefact control for NOD2-RIPK2 interaction inhibitor project, BLA reporter cells, FRET fluorescence (AID 651552). Type of assay: functional, cell-based.
The target in assay [7] is T2, Microphthalmia-associated transcription factor (Homo sapiens, UniProt O75030).
T2 sequence (O75030 whole entry): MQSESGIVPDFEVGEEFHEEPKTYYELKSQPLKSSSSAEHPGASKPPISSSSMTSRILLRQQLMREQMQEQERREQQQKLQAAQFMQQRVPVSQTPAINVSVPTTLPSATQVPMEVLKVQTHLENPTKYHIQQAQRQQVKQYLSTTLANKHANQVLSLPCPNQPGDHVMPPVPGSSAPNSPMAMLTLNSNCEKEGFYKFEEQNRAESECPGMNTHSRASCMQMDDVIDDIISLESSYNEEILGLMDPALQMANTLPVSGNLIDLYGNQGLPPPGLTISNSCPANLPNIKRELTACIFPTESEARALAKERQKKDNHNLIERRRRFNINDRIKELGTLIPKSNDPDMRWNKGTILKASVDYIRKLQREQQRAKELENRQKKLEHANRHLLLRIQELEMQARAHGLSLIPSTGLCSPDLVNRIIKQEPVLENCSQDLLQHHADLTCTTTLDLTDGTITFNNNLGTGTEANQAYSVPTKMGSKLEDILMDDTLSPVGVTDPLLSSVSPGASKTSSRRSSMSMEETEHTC
Briefly: TRPM1 promoter luciferase signal decrease, dose response, MITF inhibitor project, cell-based, SK-MEL-5, cherry-picked, set 3 (AID 493073).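 Also: SK-MEL-5 melanoma cells with luciferase driven by the MITF target TRPM1 promoter.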 Type of assay: functional.

The nature of assay [8]: Shn3 3'UTR reporter inhibitors, dose response, cell-based, Clone20 osteoblasts, firefly luciferase, cherry-picked (AID 624132).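 Also: firefly luciferase luminescence from reporter carrying the Shn3 3'UTR in osteoblasts.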 Type of assay: functional.
The target in assay [9] is T3, Fatty acid synthase (Homo sapiens, UniProt P49327). The assay is described as follows: FAS thioesterase domain inhibitors, dose response, biochemical, kinetic fluorescence intensity (AID 624326).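 Also: rate of fluorescence rise from hydrolysis of a fluorogenic O-methyl fluorescein ester substrate.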 Type of assay: functional.
Assay [10] is described as follows: reduction of endogenous Shn3 mRNA, dose response, qPCR, Clone20 cells, cherry-pick (AID 743415). Type of assay: functional, cell-based. Background: Real-time PCR tracks product formation cycle by cycle.
Assay [11] in a line: control 3'UTR Renilla luciferase suppression, dose response, counter-screen for Shn3 inhibitor project, cell-based, Clone20-Shn3RL, cherry-picked (AID 624133). Type of assay: functional. Background: Counterscreens check selectivity or assay interference.
A short description of assay [12]: HepG2 cell cytotoxicity, dose response, cytotoxicity control for Shn3 inhibitor project, CellTiter-Glo, cherry-picked (AID 624134). Type of assay: functional, cell-based. A general note: In ATP-based viability assays light output follows the ATP content of the culture.
Assay [13] can be described thus: reduction of Shn3 3'UTR firefly luciferase signal, dose response, Schnurri-3 inhibitor project, cell-based, Clone20 osteoblasts, cherry-pick, set 2 (AID 720490).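 Also: actives lower the luminescence signal as inhibitors.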 Type of assay: functional.
The target in assay [14] is T4, Replicative DNA helicase DnaB (Mycobacterium tuberculosis, UniProt P9WMR3).
T4 sequence (P9WMR3 whole entry): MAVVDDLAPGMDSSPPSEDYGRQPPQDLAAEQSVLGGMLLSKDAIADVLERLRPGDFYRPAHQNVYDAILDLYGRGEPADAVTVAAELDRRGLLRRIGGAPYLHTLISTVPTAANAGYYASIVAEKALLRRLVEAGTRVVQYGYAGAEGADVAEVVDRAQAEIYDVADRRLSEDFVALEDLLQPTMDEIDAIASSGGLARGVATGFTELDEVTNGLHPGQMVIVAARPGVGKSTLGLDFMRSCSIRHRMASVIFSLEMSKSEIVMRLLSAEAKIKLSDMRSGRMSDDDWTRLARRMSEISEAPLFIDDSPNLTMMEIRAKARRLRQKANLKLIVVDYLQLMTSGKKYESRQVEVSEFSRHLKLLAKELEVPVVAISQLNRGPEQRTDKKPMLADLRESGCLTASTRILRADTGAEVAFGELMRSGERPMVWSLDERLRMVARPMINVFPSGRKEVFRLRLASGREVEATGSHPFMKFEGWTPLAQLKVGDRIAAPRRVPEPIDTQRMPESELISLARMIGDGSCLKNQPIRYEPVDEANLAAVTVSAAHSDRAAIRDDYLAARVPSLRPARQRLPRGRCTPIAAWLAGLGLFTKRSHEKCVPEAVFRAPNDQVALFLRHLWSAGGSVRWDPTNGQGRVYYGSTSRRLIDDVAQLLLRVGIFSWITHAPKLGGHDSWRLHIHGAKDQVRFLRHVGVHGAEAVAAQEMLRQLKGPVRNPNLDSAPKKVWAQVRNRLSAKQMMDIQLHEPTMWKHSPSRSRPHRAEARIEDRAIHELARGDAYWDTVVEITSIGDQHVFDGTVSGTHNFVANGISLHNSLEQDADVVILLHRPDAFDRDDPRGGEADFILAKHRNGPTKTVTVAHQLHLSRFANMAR
Briefly: DnaB intein splicing inhibitors, dose response, biochemical, cell-free fluorescence (AID 449749). Type of assay: functional.

Assay [15] deals with T3, Fatty acid synthase. The assay is described as follows: FAS thioesterase domain inhibitors, dose response, biochemical, endpoint fluorescence intensity, uHTS hits (AID 624327).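 Also: fluorescence from hydrolysis of an O-methyl fluorescein acyl ester substrate by the enzyme.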 Type of assay: functional.
A short description of assay [16]: A549 cell cytotoxicity, dose response, cytotoxicity control, 24 h, CellTiter-Glo luminescence, cherry-picks (AID 1053115). Type of assay: functional, cell-based. To be noted: A549, 24 h.
Assay [17] in a line: Late stage counterscreen for inhibitors of Trypanosoma brucei methionyl tRNA synthetase (MetRS): Luminescence-based cell-based high throughput dose response assay to identify compounds that are cytotoxic to Jurkat human T lymphocyte cells. Type of assay: functional.
Assay [18] addresses Kallikrein-7 (Homo sapiens, UniProt P49862). The assay is described as follows: Fluorescence Intensity-based biochemical primary high throughput dose response assay to identify activators of kallikrein-7 (K7) zymogen.
The nature of assay [19]: Luminescence Cell-Based Dose Response HTS to Identify Inhibitors of 5'UTR Stem-Loop Driven Prion Protein mRNA Translation in H4 Neuroglioblastoma Cells. [Related pubchem assays: 1827 (Project Summary), 1813 (Primary HTS)]. Type of assay: functional.
A short description of assay [20]: Artemis endonuclease inhibitor potency, dose response, biochemical, fluorescence intensity (AID 720701).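 Also: Artemis endonuclease enzyme.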 Type of assay: functional.
A short description of assay [21]: inhibitors of SNCA 5'UTR-driven reporter translation, confirmation, H4 neuroglioma cells, luminescence (AID 1988). Type of assay: functional, cell-based.
The nature of assay [22]: inhibitors of firefly luciferase expression or activity, dose response, H4 neuroglioma cells, luminescence (AID 1990). Type of assay: functional, cell-based.
The nature of assay [23]: inhibitors of non-replicating M. tuberculosis, dose response, luciferase, dry powder (AID 651620). Type of assay: functional. The settings on record: Mycobacterium tuberculosis.
A short description of assay [24]: inhibitors of non-replicating M. tuberculosis, dose response, luciferase, dry powder (AID 651619). To be noted: Mycobacterium tuberculosis. Type of assay: functional.
Assay [25] in a line: Late-stage results from the probe development effort to identify antagonists of arginine vasopressin receptor 1a (AVPR1a): fluorescence-based cell-based dose response AVPR1a inhibition assay. Type of assay: functional.
Assay [26] in a line: Late-stage results from the probe development effort to identify antagonists of arginine vasopressin receptor 1a (AVPR1a): fluorescence-based cell-based dose response OXTR inhibition counterscreen assay. Type of assay: functional.
The target in assay [27] is Vasopressin V1b receptor (Homo sapiens, UniProt P47901). The assay is described as follows: Late-stage results from the probe development effort to identify antagonists of arginine vasopressin receptor 1a (AVPR1a): fluorescence-based cell-based dose response AVPR1b inhibition counterscreen assay. Type of assay: functional.
In assay [28] the target is Vasopressin V2 receptor (Homo sapiens, UniProt P30518). The assay is described as follows: Late-stage results from the probe development effort to identify antagonists of arginine vasopressin receptor 1a (AVPR1a): fluorescence-based cell-based dose response AVPR2 inhibition counterscreen assay. Type of assay: functional.
The nature of assay [29]: NIH:OVCAR-3 ovarian cancer cell cytotoxicity, dose response, PAX8 inhibitor project, plate reader, dry powder samples (AID 743044). Type of assay: functional, cell-based.
The target in assay [30] is Paired box protein Pax-8 (Homo sapiens, UniProt Q06710). Briefly: inhibitors of PAX8-driven TPO luciferase reporter, dose response, RMG-I cells, cherry-pick (AID 687027).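 Also: luciferase reporter driven by Pax8 target thyroperoxidase promoter measured by SteadyGlo luminescence.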 Type of assay: functional, cell-based.
The nature of assay [31]: IGROV1 ovarian cancer cell cytotoxicity, dose response, PAX8 inhibitor project, plate reader, dry powder samples (AID 743043). Type of assay: functional, cell-based. The settings on record: IGROV-1.
The nature of assay [32]: cytotoxicity in OVCAR8 ovarian cancer cells, dose response, PAX8 project, cell-based, plate reader, dry powder samples (AID 743197). Type of assay: functional. To be noted: OVCAR-8.
Assay [33] is described as follows: IOSE-T80 ovarian epithelial cell cytotoxicity, dose response, cytotoxicity control for PAX8 inhibitor project, plate reader, dry powder samples (AID 743045). Type of assay: functional, cell-based.

The results in this text go back to ChEMBL document CHEMBL1201862, “PubChem BioAssay data set” (2004).

The term AC50 denotes the concentration at which the activity in the assay is half-maximal. What is called IC50 is the point on the concentration scale where inhibition reaches its midpoint. As a reminder, the EC50 is the concentration giving half of the maximal effect. The IC90 is the concentration at which the effect reaches the 90% level.

The source made the active and inactive calls.

T3 sequence (P49327 whole entry, the tested form may be a part): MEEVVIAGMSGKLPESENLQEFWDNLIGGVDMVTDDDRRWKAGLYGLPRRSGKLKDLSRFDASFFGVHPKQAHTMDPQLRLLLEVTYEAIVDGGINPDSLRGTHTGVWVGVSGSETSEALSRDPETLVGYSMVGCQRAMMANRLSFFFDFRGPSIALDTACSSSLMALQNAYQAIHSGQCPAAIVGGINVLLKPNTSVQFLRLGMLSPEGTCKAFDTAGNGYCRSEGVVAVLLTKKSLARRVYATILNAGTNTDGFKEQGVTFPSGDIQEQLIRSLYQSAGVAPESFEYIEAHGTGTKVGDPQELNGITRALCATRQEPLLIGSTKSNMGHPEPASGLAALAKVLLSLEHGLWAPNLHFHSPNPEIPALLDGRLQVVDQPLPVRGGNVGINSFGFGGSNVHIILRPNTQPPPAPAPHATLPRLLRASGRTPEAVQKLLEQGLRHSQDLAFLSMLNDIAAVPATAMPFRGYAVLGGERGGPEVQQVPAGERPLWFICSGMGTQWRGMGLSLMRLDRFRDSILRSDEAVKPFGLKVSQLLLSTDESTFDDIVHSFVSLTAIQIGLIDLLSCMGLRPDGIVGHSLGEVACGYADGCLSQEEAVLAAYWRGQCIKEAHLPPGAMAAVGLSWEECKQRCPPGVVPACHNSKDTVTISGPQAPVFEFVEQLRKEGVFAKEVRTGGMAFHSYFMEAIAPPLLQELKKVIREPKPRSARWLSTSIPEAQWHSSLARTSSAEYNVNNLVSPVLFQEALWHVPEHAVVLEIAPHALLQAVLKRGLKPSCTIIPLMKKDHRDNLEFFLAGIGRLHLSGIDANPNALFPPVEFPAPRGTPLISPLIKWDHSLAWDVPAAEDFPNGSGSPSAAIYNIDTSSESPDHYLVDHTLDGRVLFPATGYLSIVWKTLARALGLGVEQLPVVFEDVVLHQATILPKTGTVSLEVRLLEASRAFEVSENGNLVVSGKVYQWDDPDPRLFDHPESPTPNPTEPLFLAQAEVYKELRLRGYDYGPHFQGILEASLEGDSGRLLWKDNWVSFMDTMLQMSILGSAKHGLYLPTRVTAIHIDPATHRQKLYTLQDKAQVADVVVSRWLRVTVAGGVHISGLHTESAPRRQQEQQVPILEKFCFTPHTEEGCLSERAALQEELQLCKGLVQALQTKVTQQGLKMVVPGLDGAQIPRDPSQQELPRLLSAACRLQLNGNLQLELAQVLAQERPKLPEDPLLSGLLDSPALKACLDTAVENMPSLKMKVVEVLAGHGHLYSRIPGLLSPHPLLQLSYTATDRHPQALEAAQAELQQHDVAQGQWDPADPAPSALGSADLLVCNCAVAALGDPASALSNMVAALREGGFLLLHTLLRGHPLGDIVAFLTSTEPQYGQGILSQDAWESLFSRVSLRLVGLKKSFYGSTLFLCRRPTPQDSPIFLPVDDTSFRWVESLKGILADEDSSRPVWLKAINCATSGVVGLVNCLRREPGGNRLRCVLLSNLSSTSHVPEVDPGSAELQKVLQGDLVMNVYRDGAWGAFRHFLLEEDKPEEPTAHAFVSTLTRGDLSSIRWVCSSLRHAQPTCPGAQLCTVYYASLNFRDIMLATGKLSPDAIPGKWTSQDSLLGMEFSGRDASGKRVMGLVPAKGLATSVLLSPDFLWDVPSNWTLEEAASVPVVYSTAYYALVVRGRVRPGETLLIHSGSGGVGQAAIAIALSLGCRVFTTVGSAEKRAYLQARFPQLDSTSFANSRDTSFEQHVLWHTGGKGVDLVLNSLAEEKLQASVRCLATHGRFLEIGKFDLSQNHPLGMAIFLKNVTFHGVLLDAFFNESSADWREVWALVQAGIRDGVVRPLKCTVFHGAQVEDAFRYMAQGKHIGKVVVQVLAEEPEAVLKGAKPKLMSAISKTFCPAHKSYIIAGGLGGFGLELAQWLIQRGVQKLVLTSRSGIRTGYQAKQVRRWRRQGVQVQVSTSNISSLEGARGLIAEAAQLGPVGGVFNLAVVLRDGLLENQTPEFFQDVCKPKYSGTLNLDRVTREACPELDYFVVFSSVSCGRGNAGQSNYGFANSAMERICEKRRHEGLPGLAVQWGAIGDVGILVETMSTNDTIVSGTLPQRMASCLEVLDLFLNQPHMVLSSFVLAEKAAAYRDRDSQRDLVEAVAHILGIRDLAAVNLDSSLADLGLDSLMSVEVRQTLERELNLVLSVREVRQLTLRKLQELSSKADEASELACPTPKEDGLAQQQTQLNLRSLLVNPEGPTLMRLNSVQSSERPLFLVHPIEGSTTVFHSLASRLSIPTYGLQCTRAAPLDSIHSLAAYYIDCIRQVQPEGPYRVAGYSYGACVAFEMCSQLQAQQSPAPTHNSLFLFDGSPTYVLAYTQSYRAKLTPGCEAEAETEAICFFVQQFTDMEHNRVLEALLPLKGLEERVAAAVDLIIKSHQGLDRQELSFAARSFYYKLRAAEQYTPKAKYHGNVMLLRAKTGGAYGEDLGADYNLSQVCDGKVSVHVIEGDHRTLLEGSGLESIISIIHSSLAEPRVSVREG
Sequence of Kallikrein-7 (P49862 whole entry): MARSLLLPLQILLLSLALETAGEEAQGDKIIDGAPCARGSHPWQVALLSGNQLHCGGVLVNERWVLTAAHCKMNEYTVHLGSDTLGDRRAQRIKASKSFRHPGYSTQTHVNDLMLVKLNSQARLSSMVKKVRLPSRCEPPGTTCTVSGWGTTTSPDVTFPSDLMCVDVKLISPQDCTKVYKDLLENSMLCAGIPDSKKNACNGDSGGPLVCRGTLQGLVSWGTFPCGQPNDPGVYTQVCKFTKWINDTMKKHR
Sequence of Beta Lactamase (Q932Y6 whole entry): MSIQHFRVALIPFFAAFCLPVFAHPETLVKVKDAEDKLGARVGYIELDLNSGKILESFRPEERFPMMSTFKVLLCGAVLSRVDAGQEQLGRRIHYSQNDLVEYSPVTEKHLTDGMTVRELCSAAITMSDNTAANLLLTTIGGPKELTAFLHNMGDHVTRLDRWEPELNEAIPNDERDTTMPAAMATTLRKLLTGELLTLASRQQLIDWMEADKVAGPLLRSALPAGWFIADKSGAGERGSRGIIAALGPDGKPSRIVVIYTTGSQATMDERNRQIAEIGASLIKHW
Sequence of Vasopressin V2 receptor (P30518 whole entry): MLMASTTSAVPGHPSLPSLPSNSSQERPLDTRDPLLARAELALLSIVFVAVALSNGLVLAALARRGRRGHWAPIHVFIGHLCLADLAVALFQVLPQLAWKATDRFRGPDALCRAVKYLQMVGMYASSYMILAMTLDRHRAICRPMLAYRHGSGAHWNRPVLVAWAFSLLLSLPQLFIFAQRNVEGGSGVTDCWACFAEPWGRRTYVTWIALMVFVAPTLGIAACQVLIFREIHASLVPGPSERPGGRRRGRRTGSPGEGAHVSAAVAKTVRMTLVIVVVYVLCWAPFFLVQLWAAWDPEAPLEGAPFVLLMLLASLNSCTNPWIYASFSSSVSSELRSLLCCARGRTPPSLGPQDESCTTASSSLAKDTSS
Sequence of Vasopressin V1b receptor (P47901 whole entry): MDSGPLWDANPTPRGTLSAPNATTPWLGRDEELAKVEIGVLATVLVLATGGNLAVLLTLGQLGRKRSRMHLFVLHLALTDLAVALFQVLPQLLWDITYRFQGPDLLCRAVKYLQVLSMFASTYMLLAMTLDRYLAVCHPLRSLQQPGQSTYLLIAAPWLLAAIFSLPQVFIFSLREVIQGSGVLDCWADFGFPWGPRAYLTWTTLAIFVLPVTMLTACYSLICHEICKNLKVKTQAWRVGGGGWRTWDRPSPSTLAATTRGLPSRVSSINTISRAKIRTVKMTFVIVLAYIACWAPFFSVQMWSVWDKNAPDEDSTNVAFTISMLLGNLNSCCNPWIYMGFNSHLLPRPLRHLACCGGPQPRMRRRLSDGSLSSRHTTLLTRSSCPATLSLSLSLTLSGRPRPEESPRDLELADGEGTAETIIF
Sequence of Paired box protein Pax-8 (Q06710 whole entry): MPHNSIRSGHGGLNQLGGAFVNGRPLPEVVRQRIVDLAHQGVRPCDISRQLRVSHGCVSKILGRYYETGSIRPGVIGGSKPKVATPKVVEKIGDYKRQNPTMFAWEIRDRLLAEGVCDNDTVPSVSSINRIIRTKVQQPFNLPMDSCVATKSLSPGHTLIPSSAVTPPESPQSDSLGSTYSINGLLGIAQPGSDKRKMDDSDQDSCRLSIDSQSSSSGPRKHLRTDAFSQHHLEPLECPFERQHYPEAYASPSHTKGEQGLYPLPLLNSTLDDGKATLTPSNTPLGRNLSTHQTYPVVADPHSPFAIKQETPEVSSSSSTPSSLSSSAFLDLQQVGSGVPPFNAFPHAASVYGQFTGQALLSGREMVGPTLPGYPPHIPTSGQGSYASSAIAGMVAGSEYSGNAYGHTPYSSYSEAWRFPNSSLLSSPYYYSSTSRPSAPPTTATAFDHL

Turning to `CCCCCCc1cc2cc(S(=O)(=O)c3ccc(C)cc3)c(=O)oc2cc1O`, the AC50 in assay [1] is > 52 µM (inactive); in [2], 37.9 µM (active); in assay [3], 2.46 µM (active).
Regarding `CC(C)[C@H](NC(=O)OC(C)(C)C)c1nnc(S(=O)(=O)Cc2c(F)cccc2Cl)o1`, the IC50 in [4] was 1.97 µM (active); in assay [6], 10.5 µM (inactive); in [9], 1.61 µM (active); in assay [15], 3.02 µM (active). Further, in assay [5], the EC50 was 9.61 µM (active). Also, the AC50 in assay [7] is 11.6 µM (active); in [8], 1.08 µM (active); in assay [10] it was 12 µM (active); in [11], 13.5 µM (active); in assay [12], 61.7 µM (active); in [13] it was 3.07 µM (active). Also, the AC50 in [14] was 4.9 µM (active).
Take `O=C(Nc1ccc2c(c1)[C@@H]1C[C@@H](CC(=O)N3CCCCC3)O[C@@H](CO)[C@@H]1O2)Nc1ccccc1F`: the AC50 in [16] was 47.8 µM (active).
`O=C(CC(=O)Nc1cccc(Cl)c1)NN=Cc1ccccc1`: in assay [17], the IC50 is > 83.3 µM (inactive).
With `Cc1cc(=O)oc2c3c(cc(OCC(=O)NCc4ccncc4)c12)OC(C)(C)CC3`, in [18], the EC50 was > 69.5 µM (inactive).
Take `CSc1nnc2c3cc(C)ccc3n(Cc3ccccc3)c2n1`: the EC50 in assay [19], in assay [21] and in [22] was > 120 µM (not active) each time. In addition, the IC50 in assay [20] is 19.8 µM (active).
Take `Fc1ccc(-c2nnc(SCc3cn(-c4ccccc4)nn3)o2)cc1`: the IC90 in assay [23] and in assay [24] was 1 µM (active) in each case.
With `Cc1ccnc(N2CCN(C(=O)N(CC3CC3)c3ccc(Cl)cc3)CC2)c1`, the IC50 in assay [25] is 0.0158 µM (active); in assay [26], > 50 µM (inactive); in assay [27] it was > 50 µM (inactive); in [28] it was > 50 µM (inactive).
For `C[C@H]1CCCCO[C@H](CN(C)C(=O)Nc2ccc(C(F)(F)F)cc2)[C@@H](C)CN([C@@H](C)CO)C(=O)c2cc(NS(=O)(=O)c3ccc(Cl)cc3)ccc2O1`, the AC50 in assay [29] was 20.1 µM (active); in [30] it was 4.68 µM (active); in assay [31], 47.6 µM (active); in assay [32], 37.2 µM (active); in [33], 51.5 µM (active).
